According to patent publication US9238796B2, “Cell growth-promoting peptide and use thereof” (TOAGOSEI CO., LTD., priority 2010, dated 2016):
No end group written: not given here.

Tested on: Rat bone marrow-derived stem cells (mesenchymal stem cells)
Test: Evaluation of cell growth-promoting activity, WST-8 colorimetric method (Example 2)
Assay type: cell-based
Details: WST-8 absorbance at 450 nm, peptide approximately 2 μM, bFGF 10 ng/mL; for OD450 at the start of cultivation: day 0; for OD450 after 2 days: day 2; for OD450 after 4 days: day 4
Description: Experimental sections were set up that used the cell growth-promoting peptides obtained in Example 1 (samples 1 to 21) as a cell growth promoter and that used a commercially available bFGF as a cell growth promoter as a comparative example. For the control, a peptide-free section (the bFGF was also not added) was set up.
The details of the evaluation testing are provided below. Each synthesized sample peptide was dissolved in PBS (phosphate-buffered physiological saline) to prepare a stock solution with a peptide concentration of 1 mM.
Rat bone marrow-derived stem cells (mesenchymal stem cells) were used as the test cells. Specifically, the test stem cells were cultured by passage on Dulbecco's MEM medium (DMEM medium: Gibco product) containing 10% fetal bovine serum (FBS: Gibco product), 2 mM of L-glutamine, 50 unit/mL of penicillin, and 50 μg/mL of streptomycin. From the second passage to the fourth passage (passages 2 to 4) were used in this evaluation testing.
Thus, the test stem cells were preliminarily recovered by treatment with a 0.05% trypsin-0.53 mM EDTA solution; a test stem cell solution, prepared with the DMEM medium containing 10 ng/mL of bFGF to provide 1×10^4 cells/mL, was seeded to each well of a 96-well plate to provide a cell count of 1×10^3 per well; and pre-cultivation was carried out overnight. The amount of medium was brought to 100 μL per well for this.
The medium in each well was then exchanged for fresh medium to which a stock solution of a peptide selected from sample 1 to 21 had been added, so as to give a concentration of the peptide in each well of approximately 2 μM. For comparison, in some wells the medium in the well was exchanged for fresh medium to which a commercially available bFGF (product of PeproTech) had been added to give a concentration of 10 ng/mL (the bFGF experimental section in Table 3).
After the addition of the sample peptide or bFGF as indicated above, the 96-well plate was placed in a CO2 incubator and cultivation at quiescence was carried out at 37° C. under 5% CO2. Medium exchange was performed every other day. The exchange medium was the same as that used at the start of cultivation (i.e., the same sample peptide or bFGF was also added to the exchange medium as in the sample peptide addition section or bFGF addition section).
During this cultivation test, a “water-soluble tetrazolium salt (WST-8)” was added as a chromogenic reagent to some wells at the start of cultivation (day 0), at two days after the start of cultivation (day 2), and at four days after the start of cultivation (day 4). After incubation for 2 hours after the addition, the cell culture fluid to which the chromogenic reagent had been added was recovered. The extent of cell growth was evaluated by a colorimetric method in which, based on reduction of the tetrazolium salt, the absorbance (OD450) at a wavelength of 450 nm was measured.

| Sequence | OD450 at the start of cultivation | OD450 after 2 days | OD450 after 4 days |
| --- | --- | --- | --- |
| ALLLLAAWTVRAGKKRTLRKNDRKKR (ALLLLAAWTVRAGKKRTLRKNDRKKR-NH2) [compound 5] | 0.058 | 0.189 | 0.483 |
| LALLLLAAWTVRAGKKRTLRKNDRKKR (LALLLLAAWTVRAGKKRTLRKNDRKKR-NH2) [compound 4] | 0.058 | 0.136 | 0.304 |
| MLPSLALGKKRTLRKNDRKKR (MLPSLALGKKRTLRKNDRKKR-NH2) [compound 21] | 0.058 | 0.155 | 0.332 |
| LLAAWTVRAGKKRTLRKNDRKKR (LLAAWTVRAGKKRTLRKNDRKKR-NH2) [compound 8] | 0.058 | 0.168 | 0.418 |
| PSLALLLLAAWTVRAGKKRTLRKNDRKKR (PSLALLLLAAWTVRAGKKRTLRKNDRKKR-NH2) [sample 2] | 0.058 | 0.136 | 0.297 |
| LAAWTVRAGKKRTLRKNDRKKR (LAAWTVRAGKKRTLRKNDRKKR-NH2) [compound 9] | 0.058 | 0.179 | 0.398 |
| MLPSLALLLLAAGKKRTLRKNDRKKR (MLPSLALLLLAAGKKRTLRKNDRKKR-NH2) [compound 16] | 0.058 | 0.172 | 0.525 |
| MLPSLALLLLGKKRTLRKNDRKKR (MLPSLALLLLGKKRTLRKNDRKKR-NH2) [compound 18] | 0.058 | 0.184 | 0.505 |
| AWTVRAGKKRTLRKNDRKKR (AWTVRAGKKRTLRKNDRKKR-NH2) [compound 11] | 0.058 | 0.169 | 0.403 |
| SLALLLLAAWTVRAGKKRTLRKNDRKKR (SLALLLLAAWTVRAGKKRTLRKNDRKKR-NH2) [sample 3] | 0.058 | 0.139 | 0.293 |
| MLPSLALLLLAAWTVRAGKKRTLRKNDRKKR (MLPSLALLLLAAWTVRAGKKRTLRKNDRKKR-NH2) [sample 1] | 0.058 | 0.132 | 0.243 |
| MLPSLALLGKKRTLRKNDRKKR (MLPSLALLGKKRTLRKNDRKKR-NH2) [compound 20] | 0.058 | 0.158 | 0.320 |
| LLLAAWTVRAGKKRTLRKNDRKKR (LLLAAWTVRAGKKRTLRKNDRKKR-NH2) [compound 7] | 0.058 | 0.176 | 0.499 |
| MLPSLALLLLAAWGKKRTLRKNDRKKR (MLPSLALLLLAAWGKKRTLRKNDRKKR-NH2) [compound 15] | 0.058 | 0.133 | 0.276 |
| LLLLAAWTVRAGKKRTLRKNDRKKR (LLLLAAWTVRAGKKRTLRKNDRKKR-NH2) [compound 6] | 0.058 | 0.186 | 0.483 |
| MLPSLALLLLAAWTGKKRTLRKNDRKKR (MLPSLALLLLAAWTGKKRTLRKNDRKKR-NH2) [compound 14] | 0.058 | 0.132 | 0.293 |
